Assay results taken from US20260201008A1, “SECRETIN-DERIVED GLP1R SELECTIVE AGONISTS” (GUBRA A/S, priority 2023, published 2026).
Like-named read-outs stand apart in the source and are kept apart here. Numbered stars: 1 amine (or outer) side, 2 acyl side, 3 side chain; on linkers, the order of the positions; unused ones are H or OH. Square brackets hold non-standard residues; d marks the D form. Side chains are listed from the residue outwards. Peptide text beside a SMILES is read from it. * marks the point of attachment. C20 diacid = O=C(O)CCCCCCCCCCCCCCCCCCC(=O)*; γGlu = O=C(O)[C@H](CCC(=O)[*:2])N[*:1]; AEEA = NCCOCCOCC(=O)O; Aib = CC(C)(N)C(=O)O

How the values were obtained:
[1] = Fibril formation of crude library peptides (Thioflavin T); assay type: physicochemical; parameters: key: average ThT fluorescence emission at 480 nm (ex 450 nm), raw units; conditions: Physical stability of peptides
Method in brief: (§1)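 Crude peptides at 267 μM in 50 mM sodium acetate pH 4.0 or 50 mM sodium phosphate pH 7.0, pre-incubated 1-2 h at room temperature, then 4 μM final ThT added. Turbidity read first as A600. ThT fluorescence (ex 450/em 480 nm) read every 10 min for 72 h at 40° C, with 5 min shaking before each read; fibril formation = average emission.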

[2] = Turbidity of crude library peptides (absorbance at 600 nm); assay type: physicochemical; conditions: Physical stability of peptides
Method in brief: as §1

SCTR = SCTR (Homo sapiens, UniProt P47872); assay: hSCTR potency, cAMP accumulation in CHO-K1 cells stably overexpressing hSCTR; assay type: cell-based; parameters: alternatively Euroscreen ES-712-AF; FAST-0161L; host or cells: CHO-K1; conditions: cAMP accumulation
Chain of SCTR (P47872 23-440): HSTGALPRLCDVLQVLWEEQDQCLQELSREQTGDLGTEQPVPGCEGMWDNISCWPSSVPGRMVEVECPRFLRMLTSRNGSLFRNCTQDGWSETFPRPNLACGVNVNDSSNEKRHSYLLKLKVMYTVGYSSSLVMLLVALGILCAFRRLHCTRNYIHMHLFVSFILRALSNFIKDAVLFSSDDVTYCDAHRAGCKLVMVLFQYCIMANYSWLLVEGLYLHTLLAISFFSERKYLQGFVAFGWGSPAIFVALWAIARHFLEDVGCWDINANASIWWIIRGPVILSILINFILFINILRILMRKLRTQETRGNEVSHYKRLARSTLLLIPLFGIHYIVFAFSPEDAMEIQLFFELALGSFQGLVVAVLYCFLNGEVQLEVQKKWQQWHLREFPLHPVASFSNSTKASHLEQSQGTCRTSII
Method in brief: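 Read-out is TR-FRET cAMP detection, recorded one hour after reagent addition, in CHO-K1 cells stably overexpressing hSCTR. Cells in DPBS containing 0.05% casein and 0.5 mM IBMX are exposed to graded peptide doses for 30 min at room temperature, with human secretin as reference agonist.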

GLP1R = GLP1R (Homo sapiens, UniProt P43220); assay: hGLP1R potency, cAMP accumulation in CHO-K1 cells stably overexpressing hGLP1R; assay type: cell-based; parameters: host or cells: CHO-K1; conditions: for EC50: cAMP accumulation; for SCTR EC50/GLP1R EC50 ratio: cAMP accumulation in CHO-K1 cells; for Selectivity: SCTR EC50/GLP1R EC50 ratio
Chain of GLP1R (P43220 24-463): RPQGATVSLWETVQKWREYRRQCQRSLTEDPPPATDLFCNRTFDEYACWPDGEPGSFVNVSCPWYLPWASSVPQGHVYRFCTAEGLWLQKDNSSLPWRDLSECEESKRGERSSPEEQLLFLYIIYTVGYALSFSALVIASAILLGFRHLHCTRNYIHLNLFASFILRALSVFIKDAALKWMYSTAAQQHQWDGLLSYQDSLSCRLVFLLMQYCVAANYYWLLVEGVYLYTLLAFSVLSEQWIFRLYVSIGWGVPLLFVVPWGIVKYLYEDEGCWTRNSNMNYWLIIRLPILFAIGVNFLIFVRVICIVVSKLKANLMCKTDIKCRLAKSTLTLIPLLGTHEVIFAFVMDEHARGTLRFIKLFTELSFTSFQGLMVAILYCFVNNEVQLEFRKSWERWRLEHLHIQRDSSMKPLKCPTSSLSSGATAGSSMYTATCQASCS
Method in brief: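 Thawed cells go straight into buffer containing 0.5 mM IBMX and 0.05% casein, get graded compound doses for 30 min at room temperature, and are then assayed for accumulated cAMP by time-resolved FRET. Human GLP-1(7-36) serves as positive control; EC50 is derived by nonlinear regression.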

[3] = CHO-K1 cells overexpressing hSCTR, read-out: hSCTR pEC50 (converted)
[4] = CHO-K1 cells overexpressing hGLP1R, read-out: hGLP1R pEC50 (converted)
[5] = selectivity for hGLP1R over hSCTR
[6] = CHO-K1 cells overexpressing hSCTR, read-out: pEC50 hSCTR (converted)
[7] = CHO-K1 cells overexpressing hGLP1R, read-out: pEC50 hGLPR1 (converted)

Row | Fibril formation [1] | Turbidity (pH 7) [2] | EC50 (SCTR; [3]) | EC50 (GLP1R; [4]) | SCTR EC50/GLP1R EC50 ratio (GLP1R; [5]) | EC50 (SCTR; [6]) | Selectivity (GLP1R) | EC50 (GLP1R; [7]) | EC50 (SCTR; CHO-K1 cells stably overexpressing hSCTR, read-out: hSCTR potency (pEC50) (converted)) | EC50 (GLP1R; CHO-K1 cells stably overexpressing hGLP1R, read-out: hGLP1R potency (pEC50) (converted)) | SCTR EC50/GLP1R EC50 ratio (GLP1R; selectivity ratio, hSCTR vs hGLP1R) | SMILES
1 | 10277 | 0.09 | 1580 nM | 0.01 nM | 145949 |  |  |  |  |  |  | CC(C)C[C@H](NC(=O)[C@H](Cc1ccccc1)NC(=O)[C@H](CCCNC(=N)N)NC(=O)[C@H](CCC(N)=O)NC(=O)C(C)(C)NC(=O)[C@H](C)NC(=O)[C@H](C)NC(=O)[C@H](CCC(=O)O)NC(=O)[C@H](CCC(=O)O)NC(=O)[C@H](CCCCNC(=O)COCCOCCNC(=O)COCCOCCNC(=O)CC[C@H](NC(=O)CCCCCCCCCCCCCCCCCCC(=O)O)C(=O)O)NC(=O)[C@H](CC(C)C)NC(=O)[C@H](CCC(=O)O)NC(=O)[C@H](CO)NC(=O)[C@@H](NC(=O)[C@H](CC(=O)O)NC(=O)[C@H](CO)NC(=O)[C@@H](NC(=O)[C@H](Cc1ccccc1)NC(=O)[C@@H](NC(=O)CNC(=O)[C@H](CCC(=O)O)NC(=O)C(C)(C)NC(=O)[C@@H](N)Cc1c[nH]cn1)[C@@H](C)O)[C@@H](C)O)C(C)C)C(=O)N[C@@H](CCC(=O)O)C(=O)N[C@@H](Cc1c[nH]cn1)C(=O)N[C@@H](CC(C)C)C(=O)N[C@H](C(N)=O)C(C)C [compound 97] (H-H[Aib]EGTFTSDVSELK([AEEA-AEEA-γGlu-C20 diacid])EEAA[Aib]QRFLEHLV-NH2)
2 | 13939 | 0.09 |  |  |  | 126 nM | 4314 | 0.0316 nM |  |  |  | CC(C)C[C@H](NC(=O)[C@H](Cc1ccccc1)NC(=O)[C@H](CCCNC(=N)N)NC(=O)[C@H](CCC(N)=O)NC(=O)[C@H](CO)NC(=O)[C@H](C)NC(=O)[C@H](C)NC(=O)C(C)(C)NC(=O)[C@H](CCC(=O)O)NC(=O)[C@H](CCCCNC(=O)COCCOCCNC(=O)COCCOCCNC(=O)CC[C@H](NC(=O)CCCCCCCCCCCCCCCCCCC(=O)O)C(=O)O)NC(=O)[C@H](CC(C)C)NC(=O)[C@H](CCCNC(=N)N)NC(=O)[C@H](CO)NC(=O)[C@@H](NC(=O)[C@H](CC(=O)O)NC(=O)[C@H](CO)NC(=O)[C@@H](NC(=O)[C@H](Cc1ccccc1)NC(=O)[C@@H](NC(=O)CNC(=O)[C@H](CCC(=O)O)NC(=O)C(C)(C)NC(=O)[C@@H](N)Cc1c[nH]cn1)[C@@H](C)O)[C@@H](C)O)C(C)C)C(=O)N[C@@H](CCC(=O)O)C(=O)N[C@@H](Cc1c[nH]cn1)C(=O)N[C@@H](CC(C)C)C(=O)N[C@H](C(N)=O)C(C)C [compound 59] (H-H[Aib]EGTFTSDVSRLK([AEEA-AEEA-γGlu-C20 diacid])E[Aib]AASQRFLEHLV-NH2)
3 | 2836 | 0.08 | 158 nM | 0.0126 nM | 13696 |  |  |  |  |  |  | CC(C)C[C@H](NC(=O)[C@H](Cc1ccccc1)NC(=O)[C@H](CCCNC(=N)N)NC(=O)[C@H](CCC(N)=O)NC(=O)[C@H](CC(C)C)NC(=O)C(C)(C)NC(=O)[C@H](C)NC(=O)[C@H](CCC(=O)O)NC(=O)[C@H](CCC(=O)O)NC(=O)[C@H](CCCCNC(=O)COCCOCCNC(=O)COCCOCCNC(=O)CC[C@H](NC(=O)CCCCCCCCCCCCCCCCCCC(=O)O)C(=O)O)NC(=O)[C@H](CC(C)C)NC(=O)[C@H](Cc1ccccc1)NC(=O)[C@H](CO)NC(=O)[C@@H](NC(=O)[C@H](CC(=O)O)NC(=O)[C@H](CO)NC(=O)[C@@H](NC(=O)[C@H](Cc1ccccc1)NC(=O)[C@@H](NC(=O)CNC(=O)[C@H](CCC(=O)O)NC(=O)C(C)(C)NC(=O)[C@@H](N)Cc1c[nH]cn1)[C@@H](C)O)[C@@H](C)O)C(C)C)C(=O)N[C@@H](CCC(=O)O)C(=O)N[C@@H](Cc1c[nH]cn1)C(=O)N[C@@H](CC(C)C)C(=O)N[C@H](C(N)=O)C(C)C [compound 173] (H-H[Aib]EGTFTSDVSFLK([AEEA-AEEA-γGlu-C20 diacid])EEA[Aib]LQRFLEHLV-NH2)
4 | 4216 | 0.12 | 1580 nM | 0.1 nM | 14710 |  |  |  |  |  |  | CC[C@H](C)[C@H](NC(=O)[C@H](Cc1ccccc1)NC(=O)[C@H](CCCNC(=N)N)NC(=O)[C@H](CCC(N)=O)NC(=O)[C@H](CC(C)C)NC(=O)[C@H](C)NC(=O)[C@H](C)NC(=O)CNC(=O)[C@H](CCC(=O)O)NC(=O)[C@H](CC(C)C)NC(=O)[C@H](CC(C)C)NC(=O)CNC(=O)[C@H](CO)NC(=O)C(C)(C)NC(=O)[C@H](CC(=O)O)NC(=O)[C@H](CO)NC(=O)[C@@H](NC(=O)[C@H](Cc1ccccc1)NC(=O)[C@@H](NC(=O)CNC(=O)[C@H](CCC(=O)O)NC(=O)C(C)(C)NC(=O)[C@@H](N)Cc1c[nH]cn1)[C@@H](C)O)[C@@H](C)O)C(=O)N[C@@H](CCC(N)=O)C(=O)N[C@@H](Cc1c[nH]c2ccccc12)C(=O)N[C@@H](CC(C)C)C(=O)N[C@H](C(N)=O)C(C)C [compound 105] (H-H[Aib]EGTFTSD[Aib]SGLLEGAALQRFIQWLV-NH2)
5 | 14614 | 0.09 |  |  |  | 316 nM | 4808 | 0.0631 nM |  |  |  | CC(C)C[C@H](NC(=O)[C@H](Cc1ccccc1)NC(=O)[C@H](CCCNC(=N)N)NC(=O)[C@H](CCC(N)=O)NC(=O)C(C)(C)NC(=O)[C@H](C)NC(=O)[C@H](C)NC(=O)C(C)(C)NC(=O)[C@H](CCC(=O)O)NC(=O)[C@H](CCCCNC(=O)COCCOCCNC(=O)COCCOCCNC(=O)CC[C@H](NC(=O)CCCCCCCCCCCCCCCCCCC(=O)O)C(=O)O)NC(=O)[C@H](CC(C)C)NC(=O)[C@H](CCCNC(=N)N)NC(=O)[C@H](CO)NC(=O)[C@@H](NC(=O)[C@H](CC(=O)O)NC(=O)[C@H](CO)NC(=O)[C@@H](NC(=O)[C@H](Cc1ccccc1)NC(=O)[C@@H](NC(=O)CNC(=O)[C@H](CCC(=O)O)NC(=O)C(C)(C)NC(=O)[C@@H](N)Cc1c[nH]cn1)[C@@H](C)O)[C@@H](C)O)C(C)C)C(=O)N[C@@H](CCC(=O)O)C(=O)N[C@@H](Cc1c[nH]cn1)C(=O)N[C@@H](CC(C)C)C(=O)N[C@H](C(N)=O)C(C)C [compound 64] (H-H[Aib]EGTFTSDVSRLK([AEEA-AEEA-γGlu-C20 diacid])E[Aib]AA[Aib]QRFLEHLV-NH2)
6 | 13444 | 0.08 |  |  |  | 1260 nM | 11839 | 0.1 nM |  |  |  | CC(C)C[C@H](NC(=O)[C@H](Cc1ccccc1)NC(=O)[C@H](CCCNC(=N)N)NC(=O)[C@H](CCC(N)=O)NC(=O)C(C)(C)NC(=O)[C@H](C)NC(=O)[C@H](C)NC(=O)[C@H](Cc1ccccc1)NC(=O)[C@H](CCC(=O)O)NC(=O)[C@H](CCCCNC(=O)COCCOCCNC(=O)COCCOCCNC(=O)CC[C@H](NC(=O)CCCCCCCCCCCCCCCCCCC(=O)O)C(=O)O)NC(=O)[C@H](CC(C)C)NC(=O)[C@H](CCCNC(=N)N)NC(=O)[C@H](CO)NC(=O)[C@@H](NC(=O)[C@H](CC(=O)O)NC(=O)[C@H](CO)NC(=O)[C@@H](NC(=O)[C@H](Cc1ccccc1)NC(=O)[C@@H](NC(=O)CNC(=O)[C@H](CCC(=O)O)NC(=O)C(C)(C)NC(=O)[C@@H](N)Cc1c[nH]cn1)[C@@H](C)O)[C@@H](C)O)C(C)C)C(=O)N[C@@H](CCC(=O)O)C(=O)N[C@@H](Cc1c[nH]cn1)C(=O)N[C@@H](CC(C)C)C(=O)N[C@H](C(N)=O)C(C)C [compound 68] (H-H[Aib]EGTFTSDVSRLK([AEEA-AEEA-γGlu-C20 diacid])EFAA[Aib]QRFLEHLV-NH2)
7 | 8355 | 0.27 |  |  |  |  |  |  | 1.58 nM | 0.0126 nM | 114 | CC[C@H](C)[C@H](NC(=O)[C@H](Cc1ccccc1)NC(=O)[C@H](CCCNC(=N)N)NC(=O)[C@H](CCC(N)=O)NC(=O)[C@H](CC(C)C)NC(=O)[C@H](C)NC(=O)[C@H](C)NC(=O)CNC(=O)[C@H](CCC(=O)O)NC(=O)[C@H](CC(C)C)NC(=O)[C@H](CC(C)C)NC(=O)[C@H](CCCNC(=N)N)NC(=O)[C@H](CO)NC(=O)[C@H](Cc1ccc(O)cc1)NC(=O)[C@H](CC(=O)O)NC(=O)[C@H](CO)NC(=O)[C@@H](NC(=O)[C@H](Cc1ccccc1)NC(=O)[C@@H](NC(=O)CNC(=O)[C@H](CCC(=O)O)NC(=O)C(C)(C)NC(=O)[C@@H](N)Cc1c[nH]cn1)[C@@H](C)O)[C@@H](C)O)C(=O)N[C@@H](CCC(N)=O)C(=O)N[C@@H](Cc1c[nH]c2ccccc12)C(=O)N[C@@H](CC(C)C)C(=O)N[C@H](C(N)=O)C(C)C [compound 194] (H-H[Aib]EGTFTSDYSRLLEGAALQRFIQWLV-NH2)
